Test results: patent US8287902B2, “Enhanced-diffusion capsule” (Rainbow Medical Ltd., priority 2008, dated 2012)

Test: Maximum plasma concentration of octreotide in rats after endoscopic administration
Details: same administered octreotide level (5 mg)
Protocol: A control test was conducted on seven control rats. A 5 mg solution of octreotide was endoscopically administered to the control rats, and the resulting maximum plasma concentrations of octreotide in the control rats were measured.
Octreotide was administered to three test rats using techniques that were in accordance with embodiments of the present invention. A drug layer of 5 mg of octreotide was dried onto the outer layer of each of three capsules, and the capsules were endoscopically placed in the small intestine of the three test rats. The resulting maximum plasma concentrations of octreotide in the test rats were measured.

C[C@@H](O)[C@@H]1NC(=O)[C@H](CCCCN)NC(=O)[C@@H](Cc2c[nH]c3ccccc23)NC(=O)[C@H](Cc2ccccc2)NC(=O)[C@@H](NC(=O)[C@H](N)Cc2ccccc2)CSSC[C@@H](C(=O)N[C@H](CO)[C@@H](C)O)NC1=O [octreotide]
resultant blood concentration of octreotide, test group (capsule surface) versus control group (solution): significantly higher
